The term IC50 denotes the midpoint of a concentration-inhibition curve.

Test [1] addresses T1, Microsomal triglyceride transfer protein (MTP) from bovine liver (Bos taurus, UniProt P55156).
T1 construct: from tissue; host or cells: bovine liver
T1 sequence (P55156 12-887): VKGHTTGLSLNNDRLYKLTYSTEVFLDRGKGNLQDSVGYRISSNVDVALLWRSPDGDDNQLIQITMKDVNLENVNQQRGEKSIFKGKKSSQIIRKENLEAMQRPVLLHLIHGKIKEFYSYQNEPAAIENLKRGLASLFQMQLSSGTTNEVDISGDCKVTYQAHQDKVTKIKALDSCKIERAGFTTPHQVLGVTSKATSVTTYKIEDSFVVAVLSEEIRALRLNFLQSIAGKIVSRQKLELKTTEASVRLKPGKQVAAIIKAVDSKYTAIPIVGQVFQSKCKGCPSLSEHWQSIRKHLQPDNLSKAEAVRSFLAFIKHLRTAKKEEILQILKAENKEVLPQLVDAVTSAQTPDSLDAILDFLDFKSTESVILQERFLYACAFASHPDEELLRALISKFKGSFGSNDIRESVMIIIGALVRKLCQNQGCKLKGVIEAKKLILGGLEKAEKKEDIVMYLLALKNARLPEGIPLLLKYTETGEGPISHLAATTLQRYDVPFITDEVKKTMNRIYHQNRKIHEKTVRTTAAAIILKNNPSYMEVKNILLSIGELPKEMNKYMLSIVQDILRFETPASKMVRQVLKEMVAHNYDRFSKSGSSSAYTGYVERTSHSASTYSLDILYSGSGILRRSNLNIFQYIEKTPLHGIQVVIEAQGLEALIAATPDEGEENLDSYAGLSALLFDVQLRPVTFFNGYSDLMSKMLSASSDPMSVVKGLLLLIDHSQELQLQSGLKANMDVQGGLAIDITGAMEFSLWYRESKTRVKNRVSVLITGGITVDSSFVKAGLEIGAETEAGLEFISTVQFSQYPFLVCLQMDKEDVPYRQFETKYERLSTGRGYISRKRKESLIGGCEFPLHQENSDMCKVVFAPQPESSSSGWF
T1 sequence (P05307 21-510 partner): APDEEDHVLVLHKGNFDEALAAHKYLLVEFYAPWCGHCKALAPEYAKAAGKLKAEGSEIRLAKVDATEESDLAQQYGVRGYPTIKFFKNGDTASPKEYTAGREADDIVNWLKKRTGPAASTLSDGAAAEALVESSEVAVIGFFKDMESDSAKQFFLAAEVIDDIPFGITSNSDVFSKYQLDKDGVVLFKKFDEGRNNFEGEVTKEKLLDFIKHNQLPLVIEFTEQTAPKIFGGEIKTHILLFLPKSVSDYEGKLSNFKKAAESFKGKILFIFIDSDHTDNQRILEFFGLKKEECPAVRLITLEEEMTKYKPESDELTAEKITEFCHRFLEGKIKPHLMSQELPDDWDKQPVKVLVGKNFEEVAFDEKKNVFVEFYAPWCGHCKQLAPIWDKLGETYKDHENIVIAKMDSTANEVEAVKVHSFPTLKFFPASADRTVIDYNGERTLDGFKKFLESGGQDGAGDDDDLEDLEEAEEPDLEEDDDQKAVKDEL
Briefly: Test Example 1: inhibition of interliposomal triglyceride (TG) transfer activity by MTP (also used for metabolites in Test Example 8). Type of test: biochemical. To be noted: MTP-mediated 14C-triolein transfer between liposomes, 37° C., one hour; read-out: Test Example 1 MTP inhibition IC50. An outline of the steps:
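Partially purified bovine liver MTP (DEAE chromatography) incubated 1 h at 37 °C, pH 7.4, with ^14C-triolein-labelled donor SUVs and unlabelled acceptor SUVs plus compound in DMSO. Acceptor radioactivity, blank-corrected, gave % inhibition versus DMSO; IC50 derived. Metabolites tested likewise.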

For test [2], the system named is HepG2 cells. Briefly: Test Example 2: inhibition of apolipoprotein B secretion from HepG2 cells, ELISA (also used for metabolites in Test Example 8). Type of test: cell-based. To be noted: Homo sapiens, 24 hours, apo B in supernatant by ELISA, read-out: Test Example 2 Inhibition of apo B secretion IC50. An outline of the steps: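 HepG2 cells cultured 24 h, then exposed 24 h to compounds or metabolites in medium with 0.5% DMSO. Secreted apo B in supernatant quantified by sandwich ELISA (HRP, ABTS, 405 nm) against purified human apo B standard; % inhibition vs DMSO group, IC50 derived.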
In general terms: An ELISA detects its analyte on a solid surface through an enzyme-linked reagent.

The subject of test [3] is Syrian hamsters. Description: Test Example 3: olive oil-loading test (inhibition of fat absorption, plasma TG). Particulars: Mesocricetus auratus, po; 100 mg/kg p.o.; plasma TG 4 hours after olive oil; read-out: Test Example 3 Inhibition of fat absorption after olive oil-loading in Hamster Inhibition rate (%). Type of test: in vivo.
Test [4] concerns Japanese white rabbits. Briefly: Test Example 5: combination use test in cholesterol-loaded rabbit model (plasma cholesterol). The test is classed as in vivo. Particulars: 1 mg/kg in high cholesterol diet, from grouping to the 4th day. How it is done:
Japanese white rabbits (male, 19 weeks of age, JW, purchased from Kitayama Labes Co., Ltd.) were fed previously in such a way that they were fed a high cholesterol diet (0.3% cholesterol+3% peanut oil-added RC-4, Product of Oriental Yeast Co., Ltd.) of 70 g/day under limited feeding for one day. The rabbits thus fed were used as a cholesterol-loaded rabbit model, and the grouping of such model was carried out in such a way that there might be no variation in the amount of plasma cholesterol among each group (five rabbits/group). […] The rabbits were fed 70 g of each diet every morning. Blood was collected from auricular artery 6 hours after the feeding on the 4th day of the administration, and cholesterol level in plasma was assayed. In the table, increased amount of plasma cholesterol during from the time of grouping to the 4th day was shown.

Consider `CC(C)CNC(=O)C(COC(=O)Cc1ccc(NC(=O)c2ccccc2-c2ccc(C(F)(F)F)cc2)cc1)(C(=O)NCC(C)C)c1ccccc1` [Example 1-66], for which the figures for the IC50 in test [1] and in test [2] were 16 nM and 9.3 nM, respectively. Besides, the inhibition in vivo at 100 mg/kg in test [3] was 52%.
In the same order, the values of `CCCNC(=O)C(CCOC(=O)Cc1cccc(NC(=O)c2ccccc2-c2ccc(C(F)(F)F)cc2)c1C)(C(=O)NCCC)c1ccccc1` [Example 5-11] are 1.3 nM, 5.1 nM and 64%.
In the same order, the values of `CCNC(=O)C(COC(=O)Cc1ccc(NC(=O)c2ccccc2-c2ccc(C(F)(F)F)cc2)c(C)c1)(C(=O)NCC)c1ccccc1` [Example 1-45] are 0.39 nM, 0.46 nM and 71%.
As to `CCC(C)(C)C(=O)O[C@H]1C[C@@H](C)C=C2C=C[C@H](C)[C@H](CC[C@@H]3C[C@@H](O)CC(=O)O3)[C@H]21` [Simvastatin, simvastatin, reference compound], the “Increased amount of total cholesterol” value in test [4] was determined as 48.6 mg/dL.
Regarding `CCCNC(=O)C(COC(=O)Cc1ccc(NC(=O)c2ccccc2-c2ccc(C(F)(F)F)cc2)c(C)c1)(C(=O)NCCC)c1ccccc1` [Example 1-72], the IC50 in test [1] was 0.44 nM; in test [2], 2.7 nM. Besides, the inhibition in vivo at 100 mg/kg in test [3] was 54%.
In the same order, the values of `CCNC(=O)C(CCOC(=O)Cc1cccc(NC(=O)c2ccccc2-c2ccc(C(F)(F)F)cc2)c1C)(C(=O)NCC)c1ccccc1` [Example 5-9] are 4 nM, 28 nM and 78%.
In the same order, the values of `CCOC(=O)C(COC(=O)Cc1ccc(NC(=O)c2ccccc2-c2ccc(C(F)(F)F)cc2)c(C)c1)(C(=O)OCC)c1ccccc1` [Example 1-3, 2-(2-{3-Methyl-4-[(4′-trifluoromethylbiphenyl-2-carbonyl)amino]phenyl}acetoxymethyl)-2-phenylmalonic acid diethyl ester] are 4.7 nM, 5.75 nM and 65%.

Source of the values: patent US7625948B2, “Ester compound and medicinal use thereof” (Japan Tobacco Inc., priority 2002, dated 2009).
